The record followed here is ChEMBL document CHEMBL4477229, “Design and Characterization of Superpotent Bivalent Ligands Targeting Oxytocin Receptor Dimers via a Channel-Like Structure” (J Med Chem, 2016).

Each structure is given as a SMILES string. Numbering of substitutions follows the chain as printed. Active and inactive are the calls of the source. No cut-off for these calls is given here. Numbered stars: 1 amine (or outer) side, 2 acyl side, 3 side chain; on linkers, the order of the positions; unused ones are H or OH. Bridge positions count the residues as written; N and C are the ends. Square brackets hold non-standard residues; d marks the D form. Peptide text beside a SMILES is read from it. I, II: the chains in the order shown. * marks the point of attachment. Sebacoyl = O=C(CCCCCCCCC(=O)[*:2])[*:1]; C12 diacid = O=C(O)CCCCCCCCCCC(=O)*; Adipoyl = O=C(CCCCC(=O)[*:2])[*:1]; Octanoyl = CCCCCCCC(=O)*; Mpa = O=C(O)CCS

Test [1] deals with T1, Oxytocin receptor (Homo sapiens) (UniProt P30559).
T1 sequence (whole entry): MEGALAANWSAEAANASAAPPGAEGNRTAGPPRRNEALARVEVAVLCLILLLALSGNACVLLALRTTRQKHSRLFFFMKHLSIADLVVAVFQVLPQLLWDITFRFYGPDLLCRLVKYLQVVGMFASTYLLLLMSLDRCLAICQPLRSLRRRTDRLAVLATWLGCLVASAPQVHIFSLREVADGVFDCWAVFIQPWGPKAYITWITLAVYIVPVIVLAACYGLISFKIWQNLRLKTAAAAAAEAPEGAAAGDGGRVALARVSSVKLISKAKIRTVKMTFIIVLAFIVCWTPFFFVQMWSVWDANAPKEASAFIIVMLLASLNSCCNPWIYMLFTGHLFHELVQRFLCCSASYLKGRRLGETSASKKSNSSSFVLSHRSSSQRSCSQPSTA
Kind of test: Ratio of EC50 for human oxytocin receptor low affinity site expressed in HEK293 cells coexpressing Rluc8-tagged Galphaq, N-terminal GFP-tagged Ggamma2 and Gbeta1 protein to Ki for human oxytocin receptor low affinity site expressed in COS7 cell membrane. The class given is cell-based.

The target of test [2] is Oxytocin receptor (Homo sapiens, UniProt P30559, C47A/V43A). The test is described as follows: (§1) Agonist activity at human oxytocin receptor V43A/C47A double mutant expressed in HEK293 cells coexpressing Rluc8-tagged Galphaq, N-terminal GFP-tagged Ggamma2 and Gbeta1 protein incubated for 2 mins by Gq protein activation based BRET assay. The class given is cell-based. Background: BRET reads energy transfer from a luciferase to a nearby fluorophore.
Sequence of Oxytocin receptor (Homo sapiens, UniProt P30559, C47A/V43A) (P30559 whole entry V43A/C47A): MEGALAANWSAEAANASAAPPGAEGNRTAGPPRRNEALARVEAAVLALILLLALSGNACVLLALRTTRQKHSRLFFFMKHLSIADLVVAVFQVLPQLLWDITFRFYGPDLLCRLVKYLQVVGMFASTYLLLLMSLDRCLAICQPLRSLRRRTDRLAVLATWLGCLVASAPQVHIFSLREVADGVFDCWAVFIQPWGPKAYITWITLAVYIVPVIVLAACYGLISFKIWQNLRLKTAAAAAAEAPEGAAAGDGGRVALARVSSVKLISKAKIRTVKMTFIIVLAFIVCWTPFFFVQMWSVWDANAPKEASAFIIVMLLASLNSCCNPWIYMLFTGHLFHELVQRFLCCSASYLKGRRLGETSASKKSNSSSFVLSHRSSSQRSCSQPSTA

In test [3] the test system is T2, Oxytocin receptor (Homo sapiens), P30559 [V43A,C47A].
T2 sequence (whole entry): T1 sequence (whole entry) with V43A, C47A
The test is described as §1. It is filed as cell-based. Set-up: unit not given here.

For test [4], the target named is T3, Oxytocin receptor (Homo sapiens, UniProt P30559).
T3 sequence (P30559 whole entry): T1 sequence (whole entry)
Kind of test: (§2) Agonist activity at human oxytocin receptor expressed in HEK293 cells coexpressing Rluc8-tagged Galphaq, N-terminal GFP-tagged Ggamma2 and Gbeta1 protein incubated for 2 mins in presence of TMH5-TAT peptide by Gq protein activation based BRET assay. The class given is cell-based.

Test [5] deals with T1, Oxytocin receptor (Homo sapiens). The test is described as §2. The class given is cell-based. Set-up: unit not given here.
For test [6], the target named is T3, Oxytocin receptor. The test is described as follows: Agonist activity at human oxytocin receptor low affinity site expressed in HEK293 cells coexpressing Rluc8-tagged Galphaq, N-terminal GFP-tagged Ggamma2 and Gbeta1 protein incubated for 2 mins by Gq protein activation based BRET assay. The class given is cell-based.
In test [7] the target is T1, Oxytocin receptor (Homo sapiens). The test is described as follows: Ratio of EC50 for human oxytocin receptor high affinity site expressed in HEK293 cells coexpressing Rluc8-tagged Galphaq, N-terminal GFP-tagged Ggamma2 and Gbeta1 protein to Ki for human oxytocin receptor high affinity site expressed in COS7 cell membrane. It is filed as cell-based.
The target is the same in test [8]. The test is described as follows: Displacement of [125I]-OVTA from human oxytocin receptor expressed in COS7 cell membrane. The class given is cell membranes.
Test [9] concerns the target T3, Oxytocin receptor. Kind of test: Agonist activity at human oxytocin receptor high affinity site expressed in HEK293 cells coexpressing Rluc8-tagged Galphaq, N-terminal GFP-tagged Ggamma2 and Gbeta1 protein incubated for 2 mins by Gq protein activation based BRET assay. It is filed as cell-based.
Test [10] addresses T4, Oxytocin receptor (Homo sapiens, UniProt P30559, C47A). The test is described as follows: (§3) Agonist activity at human oxytocin receptor C47A mutant expressed in HEK293 cells coexpressing Rluc8-tagged Galphaq, N-terminal GFP-tagged Ggamma2 and Gbeta1 protein incubated for 2 mins by Gq protein activation based BRET assay. The class given is cell-based.
For test [11], the system named is T5, Oxytocin receptor (Homo sapiens), P30559 [C47A].
T5 sequence (whole entry): T1 sequence (whole entry) with C47A
The test is described as §3. The class given is cell-based. Set-up: unit not given here.

For test [12], the target named is T3, Oxytocin receptor. Kind of test: (§4) Agonist activity at human oxytocin receptor expressed in HEK293 cells coexpressing Rluc8-tagged Galphaq, N-terminal GFP-tagged Ggamma2 and Gbeta1 protein incubated for 2 mins in presence of TMH1-TAT peptide by Gq protein activation based BRET assay. The class given is cell-based.
Test [13] has as its target T1, Oxytocin receptor (Homo sapiens). Described as §4. It is filed as cell-based. Details: unit not given here.
In test [14] the target is T3, Oxytocin receptor. The test is described as follows: (§5) Agonist activity at human oxytocin receptor expressed in HEK293 cells coexpressing Rluc8-tagged Galphaq, N-terminal GFP-tagged Ggamma2 and Gbeta1 protein incubated for 2 mins by Gq protein activation based BRET assay. It is filed as cell-based.
For test [15], the target named is T1, Oxytocin receptor (Homo sapiens). The description is as §5. The class given is cell-based. Details: unit not given here.
Another test relates to Danio rerio. The test is described as follows: Effect on social behavior in zebra fish assessed as increase in time spent swimming parallel to nacre mutant fish over time spent shoaling close to wild type fish at 0.75 ng/kg, im. It is filed as functional, organism-based.
Test [16] concerns the target T4, Oxytocin receptor. The test is described as follows: Agonist activity at human oxytocin receptor C47A mutant high affinity site expressed in HEK293 cells coexpressing Rluc8-tagged Galphaq, N-terminal GFP-tagged Ggamma2 and Gbeta1 protein incubated for 2 mins by Gq protein activation based BRET assay. It is filed as cell-based.
Test [17] deals with T4, Oxytocin receptor. The test is described as follows: Agonist activity at human oxytocin receptor C47A mutant low affinity site expressed in HEK293 cells coexpressing Rluc8-tagged Galphaq, N-terminal GFP-tagged Ggamma2 and Gbeta1 protein incubated for 2 mins by Gq protein activation based BRET assay. The class given is cell-based.
In test [18] the target is T3, Oxytocin receptor. Kind of test: Agonist activity at human oxytocin receptor high affinity site expressed in HEK293 cells coexpressing Rluc8-tagged Galphaq, N-terminal GFP-tagged Ggamma2 and Gbeta1 protein incubated for 2 mins in presence of TMH5-TAT peptide by Gq protein activation based BRET assay. It is filed as cell-based.
Test [19] has as its target T3, Oxytocin receptor. Kind of test: Agonist activity at human oxytocin receptor low affinity site expressed in HEK293 cells coexpressing Rluc8-tagged Galphaq, N-terminal GFP-tagged Ggamma2 and Gbeta1 protein incubated for 2 mins in presence of TMH5-TAT peptide by Gq protein activation based BRET assay. It is filed as cell-based.
A further test concerns Mus musculus. The test is described as follows: Effect on social behavior in OXTR+/- DBA/2J mouse assessed as increase in time spent exploring stranger mouse over time spent exploring empty cage at 0.5 ng/mouse, icv administered as single dose measured for 10 mins by three chamber method. It is filed as functional, organism-based.

T4 sequence (P30559 whole entry C47A): as the sequence (P30559 whole entry V43A/C47A) above, with A43V counted along it

As a reminder, the EC50 is the midpoint of the concentration-response curve. Regarding `CC[C@H](C)[C@@H]1NC(=O)[C@H](Cc2ccc(O)cc2)NC(=O)CCSSC[C@@H](C(=O)N2CCC[C@H]2C(=O)N[C@@H](CCCCN)C(=O)NCC(N)=O)NC(=O)[C@H](CC(N)=O)NC(=O)[C@H](CCC(N)=O)NC1=O` ([Mpa]YIQNCPKG-NH2; disulfide 1-6), the Ratio in [1] and in [7] was 10 in each case. Besides, the EC50 at Oxytocin receptor [2] was determined as 33.4 nM; at Oxytocin receptor [4], 0.75 nM; at Oxytocin receptor [6], 74.8 nM; at Oxytocin receptor [9], 0.265 nM; at Oxytocin receptor [10], 2.8 nM; on Oxytocin receptor [12], 0.92 nM. Also, it took 4 nM to reach a half-maximal effect at Oxytocin receptor [14] (EC50). The Emax in test [3] was -0.08; in test [5] it was -0.14; in [11] it was -0.15; in [13], -0.15; in test [15] it was -0.11 to -0.1. The compound further showed a KiH in test [8] of 21 pM. The KiL in test [8] stood at 3.35 nM.

Consider `CCCCCCCC(=O)NCCCC[C@H](NC(=O)[C@@H]1CCCN1C(=O)[C@@H]1CSSCCC(=O)N[C@@H](Cc2ccc(O)cc2)C(=O)N[C@@H]([C@@H](C)CC)C(=O)N[C@@H](CCC(N)=O)C(=O)N[C@@H](CC(N)=O)C(=O)N1)C(=O)NCC(N)=O` ([Mpa]YIQNCPK(Octanoyl)G-NH2; disulfide 1-6), for which, at Oxytocin receptor [14], the EC50 was found to be 4.1 nM. In test [15], the Emax is -0.11.

Turning to `CC[C@H](C)[C@@H]1NC(=O)[C@H](Cc2ccc(O)cc2)NC(=O)[C@@H](N)CSSC[C@@H](C(=O)N2CCC[C@H]2C(=O)N[C@H](C(=O)NCC(N)=O)[C@@H](C)CC)NC(=O)[C@H](CC(N)=O)NC(=O)[C@H](CO)NC1=O` (H-CYISNCPIG-NH2; disulfide 1-6), the outcome in the test with Danio rerio was Active.

Consider `CC[C@H](C)[C@@H]1NC(=O)[C@H](Cc2ccc(O)cc2)NC(=O)CCSSC[C@@H](C(=O)N2CCC[C@H]2C(=O)N[C@@H](CCCCNC(=O)CCCCCCCCCCC(=O)NCCCC[C@H](NC(=O)[C@@H]2CCCN2C(=O)[C@@H]2CSSCCC(=O)N[C@@H](Cc3ccc(O)cc3)C(=O)N[C@@H]([C@@H](C)CC)C(=O)N[C@@H](CCC(N)=O)C(=O)N[C@@H](CC(N)=O)C(=O)N2)C(=O)NCC(N)=O)C(=O)NCC(N)=O)NC(=O)[C@H](CC(N)=O)NC(=O)[C@H](CCC(N)=O)NC1=O` (I: [Mpa]YIQNCPKG-NH2 / II: [Mpa]YIQNCPKG-NH2; disulfide I:1-I:6, II:1-II:6; linker I:8-II:8 via C12 diacid), for which the EC50 is 182 nM at Oxytocin receptor [2]; 14 nM on Oxytocin receptor [4]; 0.0012 nM on Oxytocin receptor [16]; 135 nM on Oxytocin receptor [17]; 37.9 nM at Oxytocin receptor [12]; 20.1 nM at Oxytocin receptor [14]. For the same compound, the Emax in test [3] is -0.08; in [5], -0.15; in test [11] it was -0.13; in [13], -0.16; in [15], -0.11.

For the compound `CC[C@H](C)[C@@H]1NC(=O)[C@H](Cc2ccc(O)cc2)NC(=O)CCSSC[C@@H](C(=O)N2CCC[C@H]2C(=O)N[C@@H](CCCCNC(=O)CCCCCCCCC(=O)NCCCC[C@H](NC(=O)[C@@H]2CCCN2C(=O)[C@@H]2CSSCCC(=O)N[C@@H](Cc3ccc(O)cc3)C(=O)N[C@@H]([C@@H](C)CC)C(=O)N[C@@H](CCC(N)=O)C(=O)N[C@@H](CC(N)=O)C(=O)N2)C(=O)NCC(N)=O)C(=O)NCC(N)=O)NC(=O)[C@H](CC(N)=O)NC(=O)[C@H](CCC(N)=O)NC1=O` (I: [Mpa]YIQNCPKG-NH2 / II: [Mpa]YIQNCPKG-NH2; disulfide I:1-I:6, II:1-II:6; linker I:8-II:8 via Sebacoyl), the EC50 came to 0.00257 nM on Oxytocin receptor [18]; 11 nM on Oxytocin receptor [19]; 40.5 nM at Oxytocin receptor [2]; 13 nM on Oxytocin receptor [6]; 0.0028 nM at Oxytocin receptor [9]; 21.7 nM on Oxytocin receptor [10]. Moreover, the EC50 on Oxytocin receptor [12] turned out to be 17.3 nM. For the same compound, the Emax is -0.14 in test [3]; -0.17 in test [5]; -0.14 in test [11]; -0.15 in test [13]; -0.1 in [15].

Take `CC[C@H](C)[C@@H]1NC(=O)[C@H](Cc2ccc(O)cc2)NC(=O)[C@@H](N)CSSC[C@@H](C(=O)N2CCC[C@H]2C(=O)N[C@@H](CC(C)C)C(=O)NCC(N)=O)NC(=O)[C@H](CC(N)=O)NC(=O)[C@H](CCC(N)=O)NC1=O`: the result in the test with Mus musculus was Active.

Turning to `CC[C@H](C)[C@@H]1NC(=O)[C@H](Cc2ccc(O)cc2)NC(=O)CCSSC[C@@H](C(=O)N2CCC[C@H]2C(=O)N[C@@H](CCCCNC(=O)CCCCC(=O)NCCCC[C@H](NC(=O)[C@@H]2CCCN2C(=O)[C@@H]2CSSCCC(=O)N[C@@H](Cc3ccc(O)cc3)C(=O)N[C@@H]([C@@H](C)CC)C(=O)N[C@@H](CCC(N)=O)C(=O)N[C@@H](CC(N)=O)C(=O)N2)C(=O)NCC(N)=O)C(=O)NCC(N)=O)NC(=O)[C@H](CC(N)=O)NC(=O)[C@H](CCC(N)=O)NC1=O` (I: [Mpa]YIQNCPKG-NH2 / II: [Mpa]YIQNCPKG-NH2; disulfide I:1-I:6, II:1-II:6; linker I:8-II:8 via Adipoyl), the EC50 at Oxytocin receptor [2] was 25.6 nM; at Oxytocin receptor [10], 21.9 nM; at Oxytocin receptor [14] it was 11.8 nM. Also, the values for the Emax in [3], in test [11] and in [15] were -0.14, -0.13 and -0.13, respectively.
